The source of these data is patent US20120213764A1, “NOVEL METHOD FOR THE PRODUCTION OF A ANTIMICROBIAL PEPTIDE” (B.R.A.I.N. BIOTECHNOLOGY RESEARCH AND INFORMATION NETWORK AG, priority 2009, published 2012).

Data set [1] concerns S. aureus. The data set can be described thus: Antimicrobial activity assay-2 with in vivo produced DCD1. Format: cell-based. The settings on record: ~28 μg spotted, in 40% ACN/0.06% FA, S. aureus OD578nm 0.01 on LB agar. As for the experimental part: DCD1 was dissolved in 40% ACN/0.06% FA. 1. 24 μg recombinantly produced DCD1 2. 24 μg in vivo produced DCD1; 3. 10 μl 40% ACN/0.06% FA;
(§1) The antimicrobial activity of DCD1 and DCD1L peptides were tested against the following bacterial strains: Escherichia coli, Staphylococcus aureus, and Micrococcus luteus, isolated from skin. Bacterial cultures were grown to mid-exponential growth phase and bacterial concentration was estimated photometrically at 578 nm. Absorbance of 1.0 corresponded to 8.56×10^8/ml for E. coli, 1.97×10^8/ml for S. aureus. After dilution to a concentration of OD578nm 0.01 (˜10^6 CFU/ml), 100 μl of the cells were plated on LB agar. Afterwards different concentrations of the peptide dissolved in 40% ACN/0.06% FA were spotted on the plates in a total volume of 10 μl. As control 10 μl of 40% ACN/0.06% FA was used. The plates were incubated at 37° C. over night. After incubation the zone of inhibition was determined and the antimicrobial activity was calculated in dependence on the peptide concentration.
To determine the antimicrobial activity, the in vivo produced DCD1 was lyophilized and dissolved in 40% ACN/0.06% FA. For testing its activity ˜28 μg DCD1 was spotted in LB agar plates containing 100 μl S. aureus (OD578nm 0.01) (see chapter Antimicrobial activity assay—2). As control 40% ACN/0.06% FA was spotted.

For data set [2], the system named is E. coli, methicillin-resistant Staphylococcus aureus, Staphylococcus epidermidis and Candida albicans. The settings on record: cited from earlier work.
Data set [3] deals with Escherichia coli, Staphylococcus aureus, and Micrococcus luteus. Briefly: Antimicrobial activity assay-2, zone of inhibition on LB agar. The settings on record: peptide in 40% ACN/0.06% FA spotted in 10 μl on LB agar, 37° C. over night; FIG. 4 against S. aureus. Format: cell-based. How it is done: DCD1 was dissolved in 0.06% FA (2-5) or 40% ACN/0.06% FA (7-10). 1. 0.06% FA; 2. 5 μg DCD1; 3. 10 μg DCD1; 4. 30 μg DCD1; 5. 60 μg DCD1; 6.40% ACN/0.06% FA; 7. 5 μg DCD1; 8. 10 μg DCD1; 9. 30 μg DCD1; 10. 60 μg DCD1.
as §1

Data set [4] concerns Escherichia coli and Staphylococcus aureus. The data set can be described thus: Antimicrobial activity assay-1, colony-forming units (CFU) assay. Format: cell-based. The settings on record: for reduction of bacteria (colony-forming units): 50-100 μg/ml peptide, 37° C. for 2-4 hours, 10 mM sodium phosphate buffer/10 mM NaCl pH 7.0. As for the experimental part: Antimicrobial assays were performed using the colony-forming units (CFU) assay as previously described. The antibacterial activity of DCD-derived peptides was tested against the following bacterial strains: Escherichia coli and Staphylococcus aureus. Bacterial cultures were grown to mid-exponential growth phase and washed three times with 10 mM sodium phosphate buffer/10 mM NaCl (pH 7.0). Bacterial concentration was estimated photometrically at 600 nm. Absorbance of 1.0 corresponded to 8.56×10^8/ml for E. coli, 1.97×10^8/ml for S. aureus.
After dilution to a concentration of 10^6 CFU/ml, 10 μl of the dilutions were incubated at 37° C. for 2-4 hours with the respective peptide diluted in water in a total volume of 30 μl in 10 mM sodium phosphate buffer containing 10 mM NaCl (pH 7.0). After incubation, cells were diluted 1:100 in 10 mM sodium phosphate buffer containing 10 mM NaCl (pH 7.0) and 90 μl of the diluted bacterial suspension were plated in triplicates on blood agar. Bacterial colonies were counted after incubation for 18-24 hours at 37° C. The antimicrobial activity was calculated using [(cell survival after peptide incubation)/(cell survival in buffer without peptide)×100]. The LC90 describes the lethal concentration of the current peptide in μg/ml or M which leads to 90% reduction of colony-forming units compared to the buffer control. The assay was carried out with 50-100 μg/ml DCD1L and DCD1.

Details of data set [5]: species or system human. The settings on record: in vivo. How it is done:
Line 1-3: DCD1L dissolved in 300 mM NaCl, 10 mM NaH2PO4, pH 4.0 and incubated on skin for 0, 2 and 4 hours; Line 4-6: DCD1L dissolved in 300 mM NaCl, 10 mM NaH2PO4, pH 6.5 and incubated on skin for 0, 2 and 4 hours; […] and incubated on skin for 0, 2 and 4 hours. As controls are the recombinantly produced DCD1 and DCD1L peptides.
(A) 2 h, (B) 4 h, (C) 19 h. A total ion count chromatogram […] is shown in black and two single ion chromatograms for m/z 785 and m/z 805 corresponding to DCD1 and DCD1L respectively are shown.
For testing in vivo processing, the DCD1L peptide was dissolved in buffers (300 mM NaCl, 10 mM NaH2PO4) varying in pH (4, 6.5, and 9) and incubated on forearm. Therefore a construction composed of cardboard containing five ceramic rings was created. This construction was fixed on forearm with tape and ceramic rings were filled with 100 μl (˜140 μg) DCD1L. Finally an elastic foil was used to surround the whole construction. The incubation on skin varied from one to four hours before removing the samples from skin. Afterwards the peptide samples were analyzed by SDS PAGE (FIG. 5) and HPLC-MS (FIGS. 6 A and B) and also further incubated at room temperature in vitro (FIG. 6 C). […] This kind of processing was also analyzed by SDS PAGE and HPLC-MS.

With “DCD1: 47 aa peptide, amino acids 63 to 109 of dermcidin, recombinantly produced or formed from DCD1L on skin (SSLLEKGLDGAKKAVGGLGKLGKDAVEDLESVGKGAVHDVKDVLDSV; homo sapiens)”, the “antimicrobial activity (inhibition zone) of DCD1 produced from DCD1L on skin” value in data set [1] was “is antimicrobial active”. Also, the “antimicrobial activity against several microorganisms” value in data set [2] is listed as “have antimicrobial activity”. The “antimicrobial activity (zone of inhibition)” value in data set [3] is “activity emanating from DCD1 was detectable”. The “reduction of bacteria (colony-forming units)” value in data set [4] is “led to a reduction of diverse bacteria”.
For “DCD1L: 48 aa peptide, amino acids 63 to 110 of dermcidin, recombinantly produced (SSLLEKGLDGAKKAVGGLGKLGKDAVEDLESVGKGAVHDVKDVLDSVL; homo sapiens)”, the “antimicrobial activity against several microorganisms” value in data set [2] is reported as “have antimicrobial activity”. The “antimicrobial activity (zone of inhibition)” value in data set [3] is on record as “only activity emanating from DCD1 was detectable”. Also, the “conversion of DCD1L into DCD1” value in data set [5] (pH 4) is “always converted into DCD1 in a pH- and time-dependent manner”. In addition, in data set [5] (pH 9), the “incubation time after which processing of DCD1L to DCD1 was complete” value was determined as 16 h. For the same substance, the “reduction of bacteria (colony-forming units)” value in data set [4] is recorded as “only the addition of DCD1 led to a reduction of diverse bacteria”. Moreover, the “antimicrobial activity (inventors' finding, summary statement)” value in data set [4] (no conditions given at the place) is listed as “does not have antimicrobial activity”.
As for “SEQ ID NO: 4: peptide of amino acids 63 to 87 of dermcidin (SSLLEKGLDGAKKAVGGLGKLGKDA; homo sapiens)”, the “antimicrobial activity against several microorganisms” value in data set [2] was “have antimicrobial activity”.
With “SEQ ID NO: 5: peptide of amino acids 63 to 85 of dermcidin (SSLLEKGLDGAKKAVGGLGKLGK; homo sapiens)”, in data set [2], the “antimicrobial activity against several microorganisms” value is given as “have antimicrobial activity”.
